Literature values, collected in patent publication US20100143460A1, “SOLID DOSAGE FORMS COMPRISING ALISKIREN AND PHARMACEUTICALLY ACCEPTABLE SALTS THEREOF” (KRKA, TOVARNA ZDRAVIL, D.D., NOVO MESTO, priority 2007, published 2010).

Details: described in EP-A-1 517 682

COCCCOc1cc(C[C@@H](C[C@H](N)[C@@H](O)C[C@H](C(=O)NCC(C)(C)C(N)=O)C(C)C)C(C)C)ccc1OC [aliskiren]
solubility in water: very readily soluble in water
